Measurements published in patent EP2949319A1, “PHARMACEUTICAL COMPOSITIONS COMPRISING AN ACTIVE AGENT” (Galenicum Health S.L., priority 2014, dated 2015).
In brackets after ≈: the same amount, converted by molar mass.

Legend:
[1] = cited from earlier work
[2] = Dissolution of the active agent in the capsule fill (glycerol monocaprylocaprate, BHT); format: physicochemical; conditions: glycerol monocaprylocaprate and BHT, 20-23 °C, stirred
From the text: Another advantage of the process as herein disclosed is that it is highly reproducible and robust independently of the water content of the active agent. […] However, when the active agent has a water content higher than 0.05% measured by Karl Fischer titration, the components of the fill are completely dissolved at the same range of temperatures. Furthermore, the inventors have been able to establish an optimum range of working temperatures able to obtain a fill solution completely dissolved homogeneously with active agents with a water content higher than 0.05 % w/w.
• Glycerol monocaprylocaprate was added to a stainless steel tank equipped with cooling jacket to keep it at a temperature of 20-23 °C. It was stirred until completely dissolved. • Butylhydroxytoluene (BHT) was added to the tank and stirred until completely dissolved. • Finally dutasteride anhydrous was added to the tank. • The resulting solution was kept at a range of temperature of 20-23 °C. […] Water content of the active agent and the range of temperatures were studied to avoid dissolution problems.

Compound | solubility in water [1] | dissolution in the capsule fill solution [2]
C[C@]12C=CC(=O)N[C@@H]1CC[C@@H]1[C@@H]2CC[C@]2(C)[C@@H](C(=O)Nc3cc(C(F)(F)F)ccc3C(F)(F)F)CC[C@@H]12 [Dutasteride, 17-beta-N-[2,5-bis(trifluoromethyl)]phenylcarbamoyl-4-aza-5-alpha-androst-1-en-3-one] | 0.38 ng/mL (≈ 0.719 nM) | –
C[C@]12C=CC(=O)N[C@@H]1CC[C@@H]1[C@@H]2CC[C@]2(C)[C@@H](C(=O)Nc3cc(C(F)(F)F)ccc3C(F)(F)F)CC[C@@H]12 [dutasteride anhydrous, 17-beta-N-[2,5-bis(trifluoromethyl)]phenylcarbamoyl-4-aza-5-alpha-androst-1-en-3-one] | – | not possible to obtain a completely dissolved solution
